# Counter-ions that a name gives are not always drawn. Marks after values point to notes of the source that are not given here. Non-standard residues stand in square brackets, D forms with d. Residues, ends and D or L forms follow the SMILES beside them. No end group written: not given here. *: point of attachment. X5 = [N-]=[N+]=N[C@@H](CCCCCN)C(=O)*; X2 = C[C@@H](CCC[N+](C)(C)C)C(=O)*; Tle = CC(C)(C)[C@H](N)C(=O)O; hLys = NCCCCC[C@H](N)C(=O)O; X1 = C[C@@H](CCCCCN)C(=O)*; Orn = NCCC[C@H](N)C(=O)O
# Tests used:
# NTR-1 = NTR-1 (Homo sapiens, UniProt P30989); experiment: Competitive NTR binding versus radiolabeled NT[8-13]
# NTR-2 = NTR-2 (Homo sapiens, UniProt O95665); experiment: as above
# rats [1] = experiment: Clinical observation after high IV or PO dose; type: in vivo, rat
# Description: During the 2 and 24 hour post-dosing clinical observation periods, measurements of core body temperatures were taken.
# [2] = Pharmacokinetics of ABS201 in blood/plasma (LC/MS/MS); conditions: SD, rat, in vivo, iv, 100 mg/kg
# Source text: (§1) At selected time points, blood was removed or brain harvested and the concentration of the peptide analog determined using LC/MS/MS.
# (§2) These samples were then used for the determination of plasma and brain drug levels by LC/MS/MS for estimating BBB penetration and pharmacokinetic parameters.
# [3] = Brain distribution of ABS201 (LC/MS/MS)
# Source text: as §1, §2
# [4] = Pharmacokinetics of ABS212 in plasma (LC/MS/MS); type: in vivo, rat
# Source text: These samples were used for the determination of plasma parent drug concentrations by LC/MS/MS for estimating pharmacokinetic parameters and oral bioavailability.
# rats [5] = experiment: Catalepsy, horizontal bar test; conditions: IP 1 mg/kg, cut-off 30 sec
# Description: (§3) Cataleptic Analysis. […] To circumvent these potential confounding factors, tests are performed on an animal only once in a quiet, controlled environment.
# (§4) Catalepsy Assessment. […] Rats were given an IP injection of peptide (5 mg/Kg), saline, or haloperidol (1 mg/kg). After 3 hours, catalepsy was measured using the horizontal bar test. Briefly, the front paws were placed directly on a horizontal bar 5 mm in diameter placed 7.5 cm above the cage floor. The rat was held in this position for 3 sec and then released. The time from release until the paws return to the cage floor was measured and recorded. A cut-off time of 30 sec was observed; this indicated a fully cataleptic animal as cataleptic animals are frozen to the bar. […] Measures were repeated every 30 min for 4 hr. Data are means±SEM (p<0.01).
# rats [6] = experiment: Tail flick assay; type: in vivo, rat; conditions: ABS212 10 mg/kg, Morphine 5 mg/kg
# Description: The Tail Flick Assay. Each of 6 rats per experiment were placed in a Plexiglas restraint box. A standard laboratory hot water bath was maintained at 49° C. The distal 3 cm of the rat's tail was submerged into the water, and the time from insertion to tail flick or removal of tail from the water was recorded. Animals are removed immediate4ly at the cutoff latency of 10 seconds. MPEs were calculated, with a MPE of 100% corresponding to the rat's tail remaining in the water bath for 10 seconds. This was repeated 3 times. The tail was dried and allowed to rest for 20 seconds between trials. The rat was then given the appropriate amount of peptide and the experiment repeated at 30 and 60 minutes. Treatment conditions were distributed over the study in a counterbalanced design to control for such factors as calendar period and order of dosing. N=6 or greater for all experiments.
# rats [7] = experiment: Formalin assay; type: in vivo, rat; conditions: ABS212 10 mg/kg, Morphine 5 mg/kg
# Description: Formalin Assay. […] Animals were scored every minute on the following scale: 0=forepaw flat on floor, 1=forepaw just touching floor, 2=forepaw held up off of floor, and 3=forepaw licked or bitten. […] The animals were immediately be placed into the observation cages, and their behavior recorded over the following 30 minutes. After each experiment, rats were euthanized with CO2 followed by cervical dislocation. An average Pain Rating over time versus the baseline and formalin-only controls for each peptide tested were plotted, and statistical analysis were performed using a one-way analysis of variance (ANOVA). Differences were considered statistically significant at the 5% confidence interval. N=6 or greater for all experiments.
# rats [8] = experiment: d-Amphetamine induced hyperlocomotion / locomotor activity chambers; type: in vivo, rat; conditions: rat, in vivo
# Source text: Sound- and light-attenuated locomotor cages are used to measure the ability of potential candidates to decrease d-amphetamine-induced hyperactivity.
# d-Amphetamine induced hyperlocomotion. Experimentally I male Sprague-Dawley rats were housed as described above. Rats were handled for three days prior to testing to minimize experimenter induced hyperlocomotion on test day. For experiments, sound- and light-attenuated automated photocell beam activity chambers (AccuScan Instruments, Inc., Columbus, Ohio) were used to measure locomotion. Cages were connected to a VersaMax Analyzer (AccuScan) in conjunction with an IBM computer using VersaMax 1.80-0146 software (AccuScan) to record vertical and horizontal activity. Total activity values recorded were the sum of vertical and horizontal activity. […]
# Rats were placed in the activity chambers for 30 minutes to habituate and establish baseline activity levels. Then, rats were removed and given an IP or oral dose of peptide (N=7) or saline (N=8) and returned to the chamber to establish the peptide's effect on spontaneous activity levels. About 30 minutes after administration, rats were removed and given an IP injection of d-amphetamine (1 mg/kg) or vehicle and returned to the chamber for a further 1 hr to assess the effect of the peptide on induced hyperlocomotion.
# Chronic Testing Protocols.
# Separate two-factor ANOVAs for DOSE X TIME were performed for each different time-phase of the assay. Phases for the IP dosing and oral dosing experiments consisted of habituation (time points 10-60), drug (time points 70-120), and amphetamine (time points 130-240).
# rats [9] = experiment: Induced hypothermia (rectal temperature) after IP or oral administration; conditions: IP 5 mg/kg, Table 5
# Source text: Hypothermia as a Preliminary Screen of CNS Activity.
# Animal Restraint. Rats were restrained in Plas-Labs® plastic cages fitted with wooden dowels to restrict movement. Rectal temperature probes (Physitemp®, RET-2, Clifton, N.J.), lubricated with mineral oil, were inserted into the rectum of each animal. Probes were connected to a microprobe thermometer (Physitemp®, BAT-12) in conjunction with a thermocouple selector (Physitemp®, SWT-5). Rats were allowed to acclimate to the cages for 1 hr prior to IP injection.
# Peptide Preparation. […] For oral administration, the test article was administered directly into the animals' stomach by gavaging. Controls involved the administration of 0.9% NaCl. Thus, peptides were dissolved in saline, and following the equilibration period, rats were given an IP injection of peptide (5 mg/kg) or saline (1 mL/kg). […]
# Hypothermia. […] For each rat, a thermistor probe was placed 4.5 cm into the rectum; baseline temperatures were recorded for 1 hr to allow habituation to the cages prior to injection of compound. […]
# The former activity is most easily monitored by measuring the extent of induced hypothermia (core body temperature loss), which is a measure of NTR-1 binding and agonism and thus antipsychotic activity. Hypothermia is followed routinely over time through insertion of a thermometer probe hooked up to a digital readout box into the anus of the rats.
# rats [10] = conditions: rat, in vivo
# Description: as §3, §4
# rats [11] = experiment: Hotplate assay; type: in vivo, rat; conditions: for MPE (I.P.) / Tmax (I.P.) of % MPE / MPE (oral) / Tmax (Oral) of % MPE: hotplate; for MPE (I.P.) / Tmax (I.P.) of % MPE: IP at 10 mg/kg; for MPE (oral) / Tmax (Oral) of % MPE: orally at 20 mg/kg
# Source text: Animals. Experimentally naïve male Sprague-Dawley rats from Charles River Laboratories, Raleigh, N.C. (230-260 g) or Harlan, Prattville Ala. (240-280 g), were maintained 4 per cage in animal quarters on a regular light/dark cycle (lights on 0600-1800) with ad libitum food and water for approximately 1 week before the experiment. The range of body weights on the 2 days of testing was 230-260 grams. The experiment was done on one day, with animals allowed to recover for three days before experiments are repeated.
# Peptide Preparation. Test articles are prepared at the desired concentration in saline for either IP injection or gavage administration with N=6 for each dose and vehicle. Morphine (5 mg/kg) is used as a control for certain protocols. […] Apomorphine HCl (Sigma-Aldrich, St. Louis, Mo.) was dissolved in distilled water at a concentration of 5 mg/mL within 40 minutes of administration for injection at 1 mL/kg S.C. to give a dose of 5 mg/kg. When complete ED50s are determined, dosing range of the peptide will be 10, 3, 1, 0.3, 0.1 of the estimated ED50, covering two log orders of range.
# The Hotplate Assay. The hotplate assay, a standard rat model for […] pain (see Le Bars et al., Pharmacol. Rev. 53: 597-652 (2001) and Chapman et al., Pain 22:1-31 (2002)), was performed as follows. A hotplate maintained at 52° C. to 53° C. was enclosed on four sides in a plexiglass chamber that extended 6 in. above the plate. Animals were placed on the plate, and the latency between the time a rat was placed on the surface and when it lifts or licks a back paw (indicative of pain sensation) was determined. Animals are removed immediately at the cutoff latency of 30 seconds. Assays are scored as the percent of maximal possible effect (% MPE) defined as 100%, which corresponds to the rats remaining on the hotplate for 30 seconds without responding. Thus, % MPE are calculated using the following equation: % MPE=[(post-drug latency−pre-drug latency)/(cut-off pre-drug latency)]×100%. N=6 or greater for all experiments.
# Tmax indicates the time after dosing in which a maximum response was observed.
# NTR-1, sequence (P30989 whole entry, species assumed): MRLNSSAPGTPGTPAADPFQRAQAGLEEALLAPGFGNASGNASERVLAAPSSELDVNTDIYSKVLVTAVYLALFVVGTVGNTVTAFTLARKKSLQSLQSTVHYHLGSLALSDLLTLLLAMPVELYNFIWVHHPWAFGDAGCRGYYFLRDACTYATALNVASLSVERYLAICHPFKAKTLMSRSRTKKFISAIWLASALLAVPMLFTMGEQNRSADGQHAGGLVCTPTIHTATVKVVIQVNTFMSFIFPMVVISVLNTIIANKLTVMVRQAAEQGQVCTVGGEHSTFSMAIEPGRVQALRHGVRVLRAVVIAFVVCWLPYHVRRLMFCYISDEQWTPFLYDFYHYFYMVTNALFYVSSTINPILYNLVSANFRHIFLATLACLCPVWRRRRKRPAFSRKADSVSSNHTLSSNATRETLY
# NTR-2, sequence (O95665 whole entry, species assumed): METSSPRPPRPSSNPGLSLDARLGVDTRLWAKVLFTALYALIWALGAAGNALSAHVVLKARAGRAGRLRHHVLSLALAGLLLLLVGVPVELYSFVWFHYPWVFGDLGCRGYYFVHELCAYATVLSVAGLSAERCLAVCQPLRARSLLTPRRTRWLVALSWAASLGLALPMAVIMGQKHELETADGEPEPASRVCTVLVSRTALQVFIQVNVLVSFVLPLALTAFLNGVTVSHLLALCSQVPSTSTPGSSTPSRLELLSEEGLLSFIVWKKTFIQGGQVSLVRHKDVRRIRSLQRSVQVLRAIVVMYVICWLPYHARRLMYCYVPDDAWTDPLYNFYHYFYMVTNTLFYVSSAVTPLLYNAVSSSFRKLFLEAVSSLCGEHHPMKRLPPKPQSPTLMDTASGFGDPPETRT
compound,measurement,setting,value
"CC(C)C[C@H](NC(=O)[C@@H](NC(=O)[C@H](Cc1ccc(O)cc1)NC(=O)[C@@H]1CCCN1C(=O)[C@H](CCCNC(=N)N)NC(=O)[C@H](CCCCCN)N=[N+]=[N-])C(C)(C)C)C(=O)O [ABS13, N3-L-homolysine-Arg-Pro-Tyr-tertLeu-Leu-COOH] (X5-RPY[Tle]L-OH)",IC50,NTR-1,5.7 ± 0.37 nM
same,IC50,NTR-2,11.1 ± 0.1 nM
CC(C)C[C@H](NC(=O)[C@@H](NC(=O)[C@H](Cc1ccc(O)cc1)NC(=O)[C@@H]1CCCN1C(=O)[C@H](CCCNC(=N)N)NC(=O)[C@@H](C)CCCCCN)C(C)(C)C)C(=O)O [ABS201 HCl] (X1-RPY[Tle]L-OH),clinical observation 24 hour post-dosing,rats [1]; IV 50 mg/kg,grossly normal; hypothermia was absent
same,clinical observation immediately after dosing,rats [1]; IV 50 mg/kg,obviously sedated
same,clinical observation two hour post-dosing,rats [1]; IV 50 mg/kg,marked hypothermia was present
same,clinical observation,rats [1]; PO 250 mg/kg,grossly normal at all time points
CC(C)C[C@H](NC(=O)[C@@H](NC(=O)[C@H](Cc1ccc(O)cc1)NC(=O)[C@@H]1CCCN1C(=O)[C@H](CCCNC(=N)N)NC(=O)[C@@H](C)CCCCCN)C(C)(C)C)C(=O)O [ABS201.2HCl] (X1-RPY[Tle]L-OH),Vd,[2],16.1 L/kg
same,clearance,[2],380 mL/min/kg
same,AUC0-t in brain,[3]; 15 min intravenous infusion 100 mg/kg,60.96 ng·h/g
same,Cmax,"[3]; SD, rat, brain, iv, 100 mg/kg",32.9 ng/g
same,half-life,"[3]; SD, rat, brain, iv, 100 mg/kg",4.85 h
CC(C)C[C@H](NC(=O)[C@@H](NC(=O)[C@H](Cc1ccc(O)cc1)NC(=O)[C@@H]1CCCN1C(=O)[C@H](CCCNC(=N)N)NC(=O)[C@@H](C)CCC[N+](C)(C)C)C(C)(C)C)C(=O)O [ABS-212.2HCL] (X2-RPY[Tle]L-OH),clearance as % of rat hepatic blood flow,[4]; IV bolus 1 mg/kg,32.33%
same,clearance as % of rat hepatic blood flow,[4]; IV bolus 5 mg/kg,12.08%
same,clearance as % of rat hepatic blood flow,[4]; IV bolus […],12.08%
"O=C(CCCN1CCC(O)(c2ccc(Cl)cc2)CC1)c1ccc(F)cc1 [Haloperidol, reference compound]",duration of catalepsy,rats [5],greater than 30 sec
"CN1CC[C@]23c4c5ccc(O)c4O[C@H]2[C@@H](O)C=C[C@H]3[C@H]1C5 [Morphine, reference compound]",MPE (0 min),rats [6],0.03 +/− 0.05
same,MPE (30 min),rats [6],63.7 +/− 41.9
same,MPE (60 min),rats [6],67.5 +/− 25.8
same,analgesic effect over the time course,rats [7],loses activity after 30 minutes
"CC[C@H](C)[C@H](NC(=O)[C@H](Cc1ccc(O)cc1)NC(=O)[C@@H]1CCCN1C(=O)[C@H](CCCNC(=N)N)NC(=O)[C@@H](N)CCCNC(=N)N)C(=O)N[C@@H](CC(C)C)C(=O)O [NT(8-13), NH2-Arg-Arg-Pro-Tyr-Ile-Leu-COOH, reference compound]",Hyperlocomotion Inhibition (routes of administration),rats [8],CNS administration
same,Inhibits locomotor activity (routes of administration),rats [8],CNS administration
same,tmax (min) Time to maximal temperature decrease,rats [9],90 min
same,Δ in BT (° C.) Decrease in body temperature measured at tmax,rats [9],−0.45 ± 0.17^d ° C.
same,catalepsy,rats [10],No
Arg-Arg-Pro-Tyr-t-Leu-Leu [ABS213],MPE (I.P.),rats [11],48%
same,Tmax (I.P.) of % MPE,rats [11],30
Arg-Arg-Pro-Tyr-tLeu-Leu [ABS237],MPE (I.P.),rats [11],50%
same,Tmax (I.P.) of % MPE,rats [11],30
Boc-Arg-Pro-Tyr-t-Leu-Leu [ABS700],MPE (I.P.),rats [11],51%
same,Tmax (I.P.) of % MPE,rats [11],90
KRPY[Tle]L [ABS229],MPE (I.P.),rats [11],48%
same,Tmax (I.P.) of % MPE,rats [11],60
Lys-Arg-Pro-Tyr-t-Leu-Leu [ABS205],analgesic effect relative to ABS212,rats [11]; gavage 20 mg/kg,as much or more active than ABS212
same,MPE (I.P.),rats [11],86%
same,Tmax (I.P.) of % MPE,rats [11],15-30
same,MPE (oral),rats [11],66%
same,Tmax (Oral) of % MPE,rats [11],30
Orn-Arg-Pro-Tyr-t-Leu-Leu [ABS209],MPE (I.P.),rats [11],89%
same,Tmax (I.P.) of % MPE,rats [11],60
[Orn]RPY[Tle]L [ABS233],MPE (I.P.),rats [11],51%
same,Tmax (I.P.) of % MPE,rats [11],45
[hLys]RPY[Tle]L [ABS225],MPE (I.P.),rats [11],100%
same,Tmax (I.P.) of % MPE,rats [11],15-45
same,MPE (oral),rats [11],38%
same,Tmax (Oral) of % MPE,rats [11],30
